Measurements: patent publication US4204069A, “Reductive alkylation” (Merck & Co., Inc., priority 1978, dated 1980)

Experiments:
β-1 adrenergic receptors [1] = target: T1, β-1 adrenergic receptors (Cavia porcellus, UniProt H0W3H1); test: Guinea pig atrial strips, atrial rate (chronotropic response), β-1 agonist activity; type: cell-based
T1 construct: conventionally isolated tissue preparations (guinea pig atrial and tracheal strips); from tissue; host or cells: guinea pig atrial strips
Procedure: (§1) The pharmaceutical activity of the present compounds was determined in vitro using conventionally isolated tissue preparations (guinea pig atrial and tracheal strips). […] Both chronotropic (rate) and inotropic (force) responses were thereby assessed. […] The observed effect on tracheal muscle relaxation is equated with and considered to be an indication of bronchodilator activity. The β-1 and β-2 adrenergic receptor designations are those of Lands et al., Nature, 214, page 597 (1967).

β-1 adrenergic receptors [2] = target: T1, β-1 adrenergic receptors; test: Guinea pig atrial strips, atrial force (inotropic response), β-1 agonist activity; type: cell-based; settings: Atrial force (β-1)
Procedure: as §1

β-2 adrenergic receptors = target: T2, β-2 adrenergic receptors (Cavia porcellus, UniProt Q8K4Z4); test: Guinea pig tracheal strips, tracheal muscle relaxation, β-2 agonist activity (bronchodilator activity); type: cell-based
T2 construct: conventionally isolated tissue preparations (guinea pig atrial and tracheal strips); from tissue; host or cells: guinea pig tracheal strips
Procedure: as §1

[3] = Blood pressure of a rat after intravenous injection; type: in vivo; settings: injected intravenously

T2 sequence (Q8K4Z4 whole entry): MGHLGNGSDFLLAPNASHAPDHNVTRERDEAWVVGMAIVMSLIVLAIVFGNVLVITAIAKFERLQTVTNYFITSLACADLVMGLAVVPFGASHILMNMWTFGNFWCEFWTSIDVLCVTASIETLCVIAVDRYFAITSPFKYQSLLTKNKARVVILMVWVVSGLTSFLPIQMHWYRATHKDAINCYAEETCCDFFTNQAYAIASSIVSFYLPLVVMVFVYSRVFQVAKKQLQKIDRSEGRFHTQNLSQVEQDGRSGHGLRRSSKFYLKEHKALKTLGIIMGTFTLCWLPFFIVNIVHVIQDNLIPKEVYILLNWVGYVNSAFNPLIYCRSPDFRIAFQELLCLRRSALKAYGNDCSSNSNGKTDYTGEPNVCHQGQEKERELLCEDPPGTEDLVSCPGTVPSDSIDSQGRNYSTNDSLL
T1 sequence (H0W3H1 1-470): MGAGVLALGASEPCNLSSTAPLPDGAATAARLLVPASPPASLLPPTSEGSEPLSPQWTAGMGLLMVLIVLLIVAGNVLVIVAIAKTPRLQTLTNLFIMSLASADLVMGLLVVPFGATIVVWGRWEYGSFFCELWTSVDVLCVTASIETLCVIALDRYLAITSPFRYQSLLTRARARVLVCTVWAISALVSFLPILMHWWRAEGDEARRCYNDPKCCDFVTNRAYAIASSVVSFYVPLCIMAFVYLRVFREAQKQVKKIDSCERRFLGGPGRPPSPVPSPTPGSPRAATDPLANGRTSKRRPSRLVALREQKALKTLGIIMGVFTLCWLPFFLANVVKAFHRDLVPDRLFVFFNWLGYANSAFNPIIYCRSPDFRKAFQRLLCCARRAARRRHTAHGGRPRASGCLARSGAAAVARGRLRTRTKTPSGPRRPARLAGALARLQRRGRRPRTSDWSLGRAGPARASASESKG

## CC(C)NCC(O)c1ccc2nc[nH]c2c1 (racemic) [R, S-BENZISO, R,S-1-(5-benzimidazolyl)-2-isopropylaminoethanol]
β-1 adrenergic receptors [1]; Atrial rate (β-1), [ED50 (R,S-ISO)/ED50 (R,S-BENZISO)] × 100
  relative activity: 0.355
β-1 adrenergic receptors [1]; Atrial rate (β-1), maximum response relative to R,S-ISO × 100, mean ± S.E.M.
  Emax: 50 ± 9%
β-1 adrenergic receptors [1]; Atrial rate (β-1), mean ± S.E.M., n=5, administered as the dihydrochloride, read-out: pD2 (negative logarithm of ED50) (converted)
  EC50: 6.17 µM
β-1 adrenergic receptors [1]; in words, from Table I
  cardiac stimulation (β-1 force and rate): cardiac stimulant
β-1 adrenergic receptors [2]; [ED50 (R,S-ISO)/ED50 (R,S-BENZISO)] × 100
  relative activity: 0.355
β-1 adrenergic receptors [2]; maximum response relative to R,S-ISO × 100, mean ± S.E.M.
  Emax: 33 ± 12%
β-1 adrenergic receptors [2]; mean ± S.E.M., n=3, administered as the dihydrochloride, read-out: pD2 (negative logarithm of ED50) (converted)
  EC50: 3.8 µM
β-2 adrenergic receptors; Tracheal relaxation (β-2), [ED50 (R,S-ISO)/ED50 (R,S-BENZISO)] × 100
  relative activity: 4.79
β-2 adrenergic receptors; Tracheal relaxation (β-2), maximum response relative to R,S-ISO × 100, mean ± S.E.M.
  Emax: 58 ± 7%
β-2 adrenergic receptors; Tracheal relaxation (β-2), mean ± S.E.M., n=4, administered as the dihydrochloride, read-out: pD2 (negative logarithm of ED50) (converted)
  EC50: 1.66 µM
β-2 adrenergic receptors; in words, from Table I
  bronchodilator activity (β-2): good bronchodilator activity
β-2 adrenergic receptors; in words, from the β-2/β-1 ratio
  bronchodilator selectivity versus isoproterenol: more bronchodilator selective than is isoproterenol
β-2 adrenergic receptors; relative activity (tracheal relaxation)/relative activity (atrial rate)
  Ratio, β-2/β-1: 13.5
[3]
  effect on blood pressure: decrease blood pressure
